Patent publication US20050096456A1, “Compounds comprising pseudo-amino acids” (priority 2002, published 2005)
Like-named read-outs stand apart in the source and are kept apart here. Residues, ends and D or L forms follow the SMILES beside them. *: point of attachment. Myristoyl = CCCCCCCCCCCCCC(=O)*

Assay: Solubility of the lyophilised peptide
Type: physicochemical
Description: The crude peptide was desalted via gel filtration (Sephadex G10, 0.1% TFA in water) before purification by preparative C18 Vydac) high performance liquid chromatography (HPLC) using 0.1% trifluoroacetic acid and 0.1% trifluoroacetic acid/90% acetonitrile as gradient components. After lyophilisation, the peptide was a white amorphous powder, soluble to at least 10 mg/mL in both dimethylsulfoxide and water. Fast atom bombardment spectrometry gave a main peak at 2101 amu corresponding to the molecular ion of the peptide.

solubility (in dimethylsulfoxide, read-out: solubility in dimethylsulfoxide): ≥ 10000 µg/mL
solubility (in water, read-out: solubility in water): ≥ 10000 µg/mL
Structure (SMILES): CCCCCCCCCCCCCC(=O)NCC(=O)N[C@@H](CO)C(=O)N[C@@H](CO)C(=O)N[C@@H](CCCCN)C(=O)N[C@@H](CO)C(=O)N1CCC[C@H]1C(=O)N[C@@H](CO)C(=O)N[C@@H](CCCCN)C(=O)N[C@@H](CCCCN)C(=O)N[C@@H](CC(=O)O)C(=O)N[C@@H](CC(=O)O)C(=O)N[C@@H](CCCCN)C(=O)N[C@@H](CCCCN)C(=O)N1CCC[C@H]1C(=O)NCC(=O)N[C@@H](CC(=O)O)C(=O)N[C@@H](CCCCNC(=O)[C@@H](N)CS)C(N)=O [MSWP2278, Myristoyl-Gly-Ser-Ser-Lys-Ser-Pro-Ser-Lys-Lys-Asp-Asp-Lys-Lys-Pro-Gly-Asp-(E-amino-cysteinyl carboxamide)-Lys-NH2] (Myristoyl-GSSKSPSKKDDKKPGDK(Cys)-NH2)
